The record followed here is patent US10646488B2 (Araxes Pharma LLC, priority 2016, dated 2020).

SMILES strings stand for the structures.

The experiment deals with T1, KRAS G12C 1-169, his-tagged protein, GDP-loaded (Homo sapiens, UniProt P01116, G12C).
T1 construct: KRAS G12C 1-169, his-tagged protein, GDP-loaded
Description: Covalent binding (% modification) to KRAS G12C by mass spectrometry. Also: test concentration or dose not given here.

Where [1] appears, read: covalent binding to KRAS G12C after a three minute incubation period.

Take `C=CC(=O)N1C[C@H](C)N(c2nc(OCCN3CC(F)(F)C3)nc3c(F)c(-c4c(C)ccc5cn[nH]c45)c(Cl)cc23)C[C@H]1C` [Compound 112, 1-((2R,5S)-4-(6-chloro-2-(2-(3,3-difluoroazetidin-1-yl)ethoxy)-8-fluoro-7-(6-methyl-1H-indazol-7-yl)quinazolin-4-yl)-2,5-dimethyl-piperazin-1-yl) prop-2-en-1-one]: the Binding % entry under setting [1] was “++ (++ indicates binding activity from 50 to 90%)”. Regarding `C=CC(=O)N1C[C@H](C)N(c2nc(Oc3cnn(C)c3)nc3c(F)c(-c4cc(O)cc5ccccc45)c(Cl)cc23)C[C@H]1C` [Compound 216, 1-((2R,5S)-4-(6-chloro-8-fluoro-7-(3-hydroxy-naphthalen-1-yl)-2-(1-methyl-1H-pyrazol-4-yloxy)quinazolin-4-yl)-2,5-dimethyl-piperazin-1-yl) prop-2-en-1-one], under setting [1], the Binding % entry is given as “++ (++ indicates binding activity from 50 to 90%)”. Consider `C=CC(=O)N1C[C@H](C)N(c2nc(N3CC(N(C)CC)C3)nc3c(F)c(-c4c(C)ccc5cn[nH]c45)c(Cl)cc23)C[C@H]1C` [Compound 118, 1-((2R,5S)-4-(6-chloro-2-(3-(ethyl(methyl)amino)azetidin-1-yl)-8-fluoro-7-(6-methyl-1H-indazol-7-yl)quinazolin-4-yl)-2,5-dimethyl-piperazin-1-yl) prop-2-en-1-one], for which the Binding % result under setting [1] was “+ (+ indicates binding activity greater than 0% and up to 50%)”. In the case of `C=CC(=O)N1C[C@H](C)N(c2nc(N3CC(N(C)C)C3)nc3c(F)c(-c4c(C)ccc5[nH]ncc45)c(C(F)(F)F)cc23)C[C@H]1C` [Compound 189, 1-((2R,5S)-4-(2-(3-(dimethylamino)azetidin-1-yl)-8-fluoro-7-(5-methyl-1H-indazol-4-yl)-6-(trifluoromethyl)quinazolin-4-yl)-2,5-dimethyl-piperazin-1-yl) prop-2-en-1-one], the Binding % entry under setting [1] is recorded as “+++ (+++ indicates binding activity greater than 90%)”. As for `C=CC(=O)N1C[C@H](C)N(c2nc(N3CC(N(C)C)C3)nc3c(F)c(-c4c(C)ccc5cn[nH]c45)c(Cl)cc23)C[C@H]1C` (atropisomer, axis not shown) [Compound 72, 1-((2R,5S)-4-((R)-6-chloro-2-(3-(dimethylamino)azetidin-1-yl)-8-fluoro-7-(6-methyl-1H-indazol-7-yl)quinazolin-4-yl)-2,5-dimethyl-piperazin-1-yl) prop-2-en-1-one], for the setting “covalent binding to KRAS G12C after a ten minute incubation period”, the Binding % result is given as “+++ (+++ indicates binding activity greater than 90%)”.
